Key:
[1] = Stability study of Compound 1 (E920) on storage: purity by HPLC; assay type: physicochemical
Method: (§1) Compound 1 purity was determined by HPLC at two wavelengths 220 nm and 280 nm. Identification of Compound 1 was carried out by IR and NMR methods (^1H NMR, ^13C NMR). The residual solvents methanol and dichloromethane (DCM) were determined by gas chromatography (GC). Residual water content was determined by Karl Fisher analysis. Thermogravimetric analysis (TGA) of Compound 1 was also carried out with hold time of 10 minutes at final temperature of 105° C.
• Detector: UV/Vis or Diode Array Detector • Wavelength: Signal A: 280 nm, Bandwidth: 4 nm, Reference: OFF • Signal B: 220 nm, Bandwidth: 4 nm, Reference: OFF • Column: SunFire C18 Column (150×4.6 mm, 3.5 um) • Mobile Phase A: 0.06% TFA in H2O • Mobile Phase B: 0.04% TFA in (MeOH:H2O, 80:20)
• Autosampler Temperature: 6° C. • Column Temperature: 40° C. • Flow Rate: 1.0 mL/min • Injection Volume: 5 μL • Run Time: 30 min
• Accurately weigh approximately 10.0 mg of test sample into a 20 mL volumetric flask. • Dilute to volume with diluent and mix well. (0.5 mg/mL).
• Integrate all peaks≥0.05% a/a, not present in the blank solution. • ECA—Analytical Method—E920H2—for standard qualification
(§2) The stability profile of Compound 1 (Eurofins CDMO Alphora Inc. code: E920) was being evaluated over a period of 6 months under Long Term storage condition of <−20° C. and 6 months under accelerated condition of 25±2° C./60%±5% RH; and at intermediate storage conditions of 5±3° C. Additional samples are stored at each storage conditions to cover the stability studies up to 12 months, after 6 months satisfactory stability results. Attributes being tested include: description of composition, purity by HPLC, identification by HPLC and water content by Karl Fischer (KF) Method. This study is conducted in compliance with ICH Q1A (R2) and Alphora Standard Operating Procedure SOP LC027.
(§3) The stability profile of Compound 1 (Eurofins CDMO Alphora Inc. code: E920) was being evaluated over a period of up to 12 months under Long Term storage condition of <−20° C. and up to 12 months under accelerated condition of 25±2° C./60%±5% RH; and store only at intermediate storage conditions of 5±3° C. Attributes being tested include: description of composition, purity by HPLC, identification by HPLC and water content by Karl Fischer (KF) Method. This study is conducted in compliance with ICH Q1A (R2) and Alphora Standard Operating Procedure SOP LC027.

[2] = Stability study of Compound 1 (E920) on storage: water content by Karl Fischer; assay type: physicochemical
Method: as §1, §2, §3

SMILES: C[C@@](Cc1ccc(O)c(O)c1)(N/N=C/c1cc(O)c(O)c([N+](=O)[O-])c1)C(=O)O [Compound 1, (2s)-2-[(E)-2-[(3,4-dihydroxy-5-nitrophenyl)methylidene]hydrazin-1-yl]-3-(3,4-dihydroxyphenyl)-2-methylpropanoic acid]
- % Purity at 220 nm by HPLC ([1]; 25° C./60% RH, 1 M): 95.7%
- % Purity at 280 nm by HPLC ([1]; 25° C./60% RH, 1 M): 96.2%
- % a/a Purity at 220 nm by HPLC ([1]; 25° C./60% RH, 1 M): 95.7 % a/a
- % a/a Purity at 280 nm by HPLC ([1]; 25° C./60% RH, 1 M): 96.2 % a/a
- % Purity at 220 nm by HPLC ([1]; 25° C./60% RH, 3 M): 93.9%
- % Purity at 280 nm by HPLC ([1]; 25° C./60% RH, 3 M): 94.9%
- % a/a Purity at 220 nm by HPLC ([1]; 25° C./60% RH, 3 M): 93.9 % a/a
- % a/a Purity at 280 nm by HPLC ([1]; 25° C./60% RH, 3 M): 94.9 % a/a
- % a/a Purity at 220 nm by HPLC ([1]; 25° C./60% RH, 6 M): 94.8 % a/a
- % a/a Purity at 280 nm by HPLC ([1]; 25° C./60% RH, 6 M): 95.3 % a/a
- % a/a Purity at 220 nm by HPLC ([1]; 25° C./60% RH, 12 M): 93.2 % a/a
- % a/a Purity at 280 nm by HPLC ([1]; 25° C./60% RH, 12 M): 95.1 % a/a
- % Purity at 220 nm by HPLC ([1]; Initial): 95.4%
- % Purity at 280 nm by HPLC ([1]; Initial): 96.1%
- % a/a Purity at 220 nm by HPLC ([1]; Initial (12-month study)): 95.4 % a/a
- % a/a Purity at 280 nm by HPLC ([1]; Initial (12-month study)): 96.1 % a/a
- Three-month stability ([1]; −20° C. and 25° C./60% RH): satisfactory
- Twelve-month stability ([1]; −20° C. and 25° C./60% RH): satisfactory
- % Purity at 220 nm by HPLC ([1]; −20° C., 1 M): 95.8%
- % Purity at 280 nm by HPLC ([1]; −20° C., 1 M): 96.0%
- % a/a Purity at 220 nm by HPLC ([1]; −20° C., 1 M): 95.8 % a/a
- % a/a Purity at 280 nm by HPLC ([1]; −20° C., 1 M): 96.0 % a/a
- % Purity at 220 nm by HPLC ([1]; −20° C., 3 M): 94.3%
- % Purity at 280 nm by HPLC ([1]; −20° C., 3 M): 95.2%
- % a/a Purity at 220 nm by HPLC ([1]; −20° C., 3 M): 94.3 % a/a
- % a/a Purity at 280 nm by HPLC ([1]; −20° C., 3 M): 95.2 % a/a
- % a/a Purity at 220 nm by HPLC ([1]; −20° C., 6 M): 96.5% a/a
- % a/a Purity at 280 nm by HPLC ([1]; −20° C., 6 M): 96.1 % a/a
- % a/a Purity at 220 nm by HPLC ([1]; −20° C., 12 M): 95.9 % a/a
- % a/a Purity at 280 nm by HPLC ([1]; −20° C., 12 M): 96.6 % a/a
- % residual water content by KF ([2]; 25° C./60% RH, 1 M): 1.63%
- % residual water content by KF ([2]; 25° C./60% RH, 1 M (12-month study)): 1.63%
- % residual water content by KF ([2]; 25° C./60% RH, 3 M): 2.05%
- % residual water content by KF ([2]; 25° C./60% RH, 3 M (12-month study)): 2.05%
- % residual water content by KF ([2]; 25° C./60% RH, 6 M): 3.55%
- % residual water content by KF ([2]; 25° C./60% RH, 12 M): 4.02%
- % residual water content by KF ([2]; Initial): 1.51%
- % residual water content by KF ([2]; Initial (12-month study)): 1.51%
- % residual water content by KF ([2]; −20° C., 1 M): 1.67%
- % residual water content by KF ([2]; −20° C., 1 M (12-month study)): 1.67%
- % residual water content by KF ([2]; −20° C., 3 M): 1.96%
- % residual water content by KF ([2]; −20° C., 3 M (12-month study)): 1.96%
- % residual water content by KF ([2]; −20° C., 6 M): 3.35%
- % residual water content by KF ([2]; −20° C., 12 M): 4.08%

From patent US20260240801A1, “COMPOSITIONS FOR TREATING PARKINSON’S DISEASE AND QUALITATIVE ASSESSMENT THEREOF” (InTrance Medical Systems Inc., priority 2023, published 2026)
